In a melting point compilation (Tetko et al.; mined from patent text by program, amines drawn as free bases though some values may be those of a salt) one finds melting point data, which are given here for 90 compounds.

The structures appear in SMILES notation.

A word on the melting point: it is the temperature of the solid-liquid transition.

For `COC(=O)C(Cl)=Cc1ccc(OC)cc1`, the melting point fell in the range of 68 to 70 °C.
`CC(C)C[C@H](NC(=O)OCc1ccc(Cl)cc1)C(=O)N[C@@H](Cc1ccccc1)C(=O)CSCc1ccco1`: the melting point fell in the range of 123 to 124 °C.
Compound `CCn1c2ccccc2c2oc(C(=O)Cl)cc21` returned a melting point of 127 to 129 °C.
To `O=C1C(=O)c2ccccc2C2=C1SCC1(CCN(CCCc3ccccc3)CC1)O2` belongs 112 to 114 °C; to `CCOC(=O)c1cc(N=c2sc(=S)n3n2CCCC3)c(F)cc1F`, 91 to 92 °C; to `CCCN1CCc2c(NC(C)=O)ccc(Br)c2C1`, 144 to 145 °C.
`CCOC(=O)Cc1cc(C)c(C(=O)c2ccc(Cl)cc2)n1C`: the melting point fell in the range of 101 to 104 °C.
Compound `CC(C)(C)OC(=O)COCCCCS(=O)(=O)c1cnc(-c2ccccc2)c(-c2ccccc2)n1` showed a melting point of 88 to 90 °C.
Take `Cc1nc(-n2ccc(C(F)(F)F)cc2=O)sc1C(=O)NCc1ccccc1`: the melting point lay within 197 to 198 °C.
As to `CN1C2=NCCN2C(=O)c2cc(Cl)ccc21`, the melting point lay within 200 to 202 °C.
To `CC(C)Oc1ccc(N)c(CC#N)n1` belongs 83 to 85 °C; to `Cc1nc(C(=O)Nc2cccc(Cl)c2Cl)c(C)n1-c1ccccc1`, 127 to 129 °C; to `CC1CS(=O)C(c2cccs2)=NO1` (stereo not given), 114 to 115 °C.
Then `COc1ccc(CCN2CCC(NC(C)=O)CC2)cc1OC`, with 152 to 154 °C; and `O=C(OCC(Cl)(Cl)Cl)N1CCCC(C(=O)OCc2ccccc2)(C(=O)OCc2ccccc2)C1`, with 76 °C.
`CCCCCCCCCCCCCCOC(=O)c1ccc(OC)c(N)c1` returned a melting point of 54 to 56 °C.
Then `CC1(C)C(C(=O)O)C1(C)C`, with 120 °C; and `N#Cc1nccc2cccc(-n3cccc3)c12`, with 178 °C.
Then `Cc1nnc2ccc(-c3ccccc3Cl)nn12`, with 146 to 148 °C; and `CN(CCNC(=O)c1ccccc1)C(=O)c1ccccc1`, with 121 °C.
Then `Cc1cc(-c2nnc3c4ccccc4c(OCc4ccncc4)nn23)no1`, with 244 to 246 °C; and `COc1ccc(CCNC(=O)c2nc(N)sc2-c2ccncc2)cc1OC`, with 167 to 168 °C; and `CC1(C)NC(=O)OC12CCN(C(=O)OCc1ccccc1)CC2`, with 208 to 209 °C.
Take `CC(=NNc1c(Cl)cc(C(F)(F)F)cc1Cl)C(=NO)C(=O)Nc1ccccc1`: the melting point fell in the range of 185 to 186 °C.
To `CCOC(=O)c1ccc(C(=O)CBr)cc1` belongs 67 to 68.5 °C; to `CC1c2ccccc2-c2cc(Br)ccc2N1S(=O)(=O)c1ccc(O)cc1` (stereo not given), 201 to 203 °C; to `CCOC(=O)c1ncn(-c2nc(C)cs2)c1Cl`, 98 to 101 °C.
Regarding `Cc1nc2c(-c3cccc(N4CCN(C5CCN(C)CC5)CC4)c3)cnn2c(N)c1-c1cccc(Cl)c1`, the melting point fell in the range of 180 to 185 °C.
`COc1nc2cc(Cl)c(Cl)c([N+](=O)[O-])c2nc1OC` returned a melting point of 184 to 186 °C.
To `CC12CCC(C1)C1(C)Oc3ccc(C(=O)COc4ccc(C(=O)O)cc4)cc3C21C` (stereo not given) belongs 188 °C; to `Cc1cc2oc(-c3ccccn3)nc2cc1N=C=S`, 192 to 194 °C.
On to `CCOC(=O)C1=C(C)NC(COC(N)=O)=C(C(=O)OCC)C1c1ccccc1[N+](=O)[O-]` (stereo not given), for which the melting point was in the range of 128 to 132 °C.
In turn, `CSc1nnc(-c2nn(C)c(C)c2S(N)(=O)=O)o1` showed a melting point of 156 to 158 °C.
Then `Cc1ccc(CC(C(N)=O)c2ccccc2)cc1` (stereo not given), with 150 to 151 °C; and `CC1(C)OC[C@@H](CNc2c([N+](=O)[O-])cnc3cc(Br)ccc23)O1`, with 136 to 137 °C.
To `CC(NC(=O)[C@@H](N)C(C)C)c1cc2ccccc2s1` (stereo not given in full) belongs 70 to 71 °C; to `O=C(Cc1ccccc1)Nc1ccc2ccc(Cl)nc2n1`, 187 °C.
Then `COc1ccc(C(=O)c2c(N(C)C)sc3cc(OCc4ccccc4)ccc23)cc1OC`, with 69 to 72 °C; and `CCCCc1ncc(C=C2C(=O)Nc3ccccc32)n1Cc1ccc(C(=O)O)cc1`, with 237 to 238 °C; and `COc1cc(C(=O)O)ccc1OCCCCl`, with 154 to 156 °C.
`C#CC[C@H](c1nc2cc(Cl)ccc2c(=O)n1Nc1ccccc1)N(CCCN)C(=O)c1cc2ccccc2s1` had a melting point of 103 to 106 °C.
On to `Cc1nc2c3c(ccn2c1C)C(O)CC(c1ccccc1)N3` (stereo not given), for which the melting point was 210 to 212 °C.
Then `CC(C)(C(=O)OCC(=O)c1ccccc1)n1c(=O)[nH]c2cc(Cl)ccc2c1=O`, with 203 to 204 °C; and `CCCCCCCCCCCCn1nnnc1Nc1ccccc1`, with 108 to 111 °C; and `O=C(Nc1ccc(-n2nc(C(F)(F)F)cc2C(F)(F)F)cc1)c1cc(F)c(F)c(F)c1`, with 158 to 159 °C.
Then `O=C(OCc1ccccc1)c1ccc(OCc2cccc(COc3ccc(C(=O)OCc4ccccc4)cc3Cl)c2)c(Cl)c1`, with 95.8 to 97 °C.
To `COC(=O)CN(NC(N)=O)c1cc(C)cc(C)c1` belongs 139 to 141 °C; to `CCOC(=O)OC1=C(c2cc(C)ccc2C)C(=O)NC1CC1CCS(=O)CC1` (stereo not given), 103 to 106 °C.
As for `Cc1cccc(C=NNc2nc(OCCc3ccccn3)nc(N3CCOCC3)n2)c1`, the melting point was 143 to 147 °C.
Then `CC(CO)(CO)OCc1ccccc1`, with 89.5 to 90 °C.
Then `CCCCc1ncc(C(=O)OCC)c(NCc2ccc(-c3ccccc3-c3nnnn3C(c3ccccc3)(c3ccccc3)c3ccccc3)cc2)n1`, with 116 to 118 °C; and `COc1cc(/C=C2\C(=O)NC(=O)\C2=C\c2ccccc2)ccc1OC1CCCC1`, with 203 to 204 °C.
For `COC(=O)c1ccc(Cl)c(Cn2nnn(C3CC3)c2=O)c1Cl`, the melting point fell in the range of 99 to 100 °C.
To `N#Cc1cccc(C2=Nc3ccc(C#CC4=CCNCC4)cc3NC(=O)C2)c1` belongs 184 °C; to `CCCCCCCCCCCCc1cc2cc(C(=O)OCCCC)ccc2[nH]1`, 74 to 76 °C.
To `CC1CN(c2c(F)cc3c(=O)c(C(=O)O)cn(C4CC4)c3c2Cl)CC1CN` (stereo not given) belongs 235 to 238 °C; to `CCc1cc(C(N)=O)nn1CC`, 129 to 131 °C.
Then `CCCC(=O)NS(=O)(=O)c1ccc(C(=O)/C=C/c2cc(N3CCCC3)c(OC)cc2OC)cc1`, with 193 to 195 °C; and `O=C(CSc1ccc(C(F)(F)F)cc1C(=O)O)c1ccccc1`, with 128 to 130 °C.
For `COC(=O)C(Oc1ccc(-c2ccc(Cl)cc2)cc1)C(F)(F)F` (stereo not given), the melting point is 104 to 105 °C.
To `CCC(CC)c1ccc(C(F)(F)F)c2[nH]c(=O)n(C)c12` belongs 205 to 206 °C.
To `Cc1cccc(NC(=O)NC2N=C(c3ccccc3F)c3ccccc3N(Cc3nccc4c3CCCC4)C2=O)c1` (racemic) belongs 207 to 210 °C; to `CN(C)C(=O)Sc1ccccc1C(=O)c1cccc(C#N)c1`, 86 °C; to `COc1ccc(C(=O)c2cc(C(C)(C)C)c(O)c(C(C)(C)C)c2)cc1`, 141 to 142 °C.
Compound `COc1cc(COc2nn(-c3ccccc3)cc2C=C(C#N)C#N)ccc1OCc1nc(-c2ccco2)oc1C` showed a melting point of 190 to 191 °C.
`CCCCCC(C)(c1ccc(O)c(C)c1)c1ccc(O)c(C)c1` showed a melting point of 99 to 101 °C.
To `COc1ccc2c(c1)CNCCO2` belongs 96 to 97 °C.
Then `Cc1nc2ccccc2n(-c2ccc(N)cc2)c1=O`, with 269 to 271 °C; and `COC(=O)Cc1cc(O)n(C)n1`, with 148 °C; and `N[C@@H](CS(=O)(=O)O)C(=O)O`, with 273 to 275 °C.
Then `CCOC(=O)C1=C(COCC(C)N=[N+]=[N-])NC(C)=C(C(=O)OC)C1` (stereo not given), with 115 °C.
`CC(=O)NC[C@H]1CN(c2ccc(N3CCN(C(=O)CCC(=O)c4ccc(Br)cc4)CC3)c(F)c2)C(=O)O1` displayed a melting point of 197 to 198 °C.
Compound `CCn1cc(C(=O)O)c(=O)c2cc(F)c(-n3ccnc3)c(F)c21` came in with a melting point of 283 to 288 °C.
As for `O=C(Cc1ccncc1)[N+]1([O-])CCC(C2c3ccc(Cl)cc3CCc3cccnc32)CC1` (stereo not given), the melting point was in the range of 125 to 126 °C.
To `NS(=O)(=O)c1ccc(-n2nc(C(F)(F)F)cc2-c2nc3ccc(Cl)cc3s2)cc1` belongs 254 to 255 °C.
Then `CCCCCC(Sc1ccc(OC)cc1)C(=O)O` (stereo not given), with 90 to 95 °C; and `COc1cccc(Oc2cccc(-c3cccc(C(=O)NCCC#N)c3)n2)c1`, with 85 to 86 °C; and `O=CC=C(Cl)c1cccc([N+](=O)[O-])c1`, with 83 °C.
To `CCN(CC)CCOc1ccc2cc3ccc(OCCN(CC)CC)cc3nc2c1` belongs 94 to 95 °C; to `CC(C)(C)C1Cn2c(nc3ccccc32)-c2ccccc2O1` (stereo not given), 149 to 150 °C; to `Cc1cc(OCc2ccc(-c3ccc(OC(F)(F)F)cc3)nc2)ccc1OC(C)(C)C(=O)O`, 146 to 148 °C.
For the compound `CCC(=O)NC(Cl)C(Cl)(Cl)CCl` (stereo not given), the melting point was 167 °C.
For the compound `O=C(O)CCc1cn(Cc2ccc(OCc3ccc4ccccc4n3)nc2)nc1-c1ccccc1`, the melting point was 166 to 167 °C.
On to `CCN(CC)c1ccc2nc3c4ccc(Br)cc4c(=Nc4ccccn4)cc-3oc2c1`, for which the melting point is 204 to 205 °C.
Compound `OCC1=CCN(Cc2ccccc2)CC1` displayed a melting point of 57 to 60 °C.
For `Clc1ccc(Cn2c(-c3ccccn3)nc3ccccc32)cc1Cl`, the melting point was in the range of 227 to 229 °C.
To `COc1ccc(CCC(=NNc2ccc(C3=NNC(=O)CC3C)cc2)c2ccc(O)cc2O)cc1OC` (stereo not given) belongs 135 to 140 °C; to `Cc1ccc2cc(-c3ccc4ccc5cccc6ccc3c4c56)ccc2n1`, 133 °C.
Then `COC(=O)c1c(I)ccc2c(=O)c3ccccc3[nH]c12`, with 202 to 204 °C; and `CC(=O)n1c(C)c(-c2ccccc2)c(=O)n1-c1ncccn1`, with 138 to 140 °C.
